The values below are quoted from earlier work in PMC9556824, “Design, synthesis and computational study of new benzofuran hybrids as dual PI3K/VEGFR2 inhibitors targeting cancer” (Scientific Reports, 2022).

For this data set, the system named is VEGFR-2. The settings on record: read-out: IC50 against VEGFR-2; cited from earlier work.

For `COc1c(C(=O)/C=C/c2ccc([N+](=O)[O-])cc2)c(O)cc2occc12` [Compound V], the IC50 is 1 nM.

For orientation: IC50 means the concentration needed to halve the response being measured.
